The test system of assay [1] is M. tuberculosis H37Rv fructose-bisphosphate aldolase (FBA). Conditions: ref PubChem Bioassay AID 588726; cited from earlier work.
The subject of assay [2] is M. tuberculosis. Conditions: Table 1; nd = no detected effect; ref PubChem Bioassay AID 449762; cited from earlier work.
Assay [3] concerns M. tuberculosis. Conditions: Table 1; values deduced from ref PubChem Bioassay AID 1626; cited from earlier work.
In assay [4] the test system is M. tuberculosis H37Rv. Briefly: M. tuberculosis growth inhibition. Format: cell-based, Mycobacterium tuberculosis. Conditions: for MIC: Mycobacterium tuberculosis, H37RV, read-out: Mycobacterium Growth inhibition, MIC (μM) tuberculosis, Table 2, this study.
Assay [5] relates to NAD pool. Briefly: NAD pool level in M. smegmatis, colorimetric detection kit. The format is cell-based, Mycobacterium smegmatis.
Assay [6] deals with non-replicating M. smegmatis. In words: Cell viability by CFU assay under carbon starvation. Format: cell-based, Mycobacterium smegmatis. Conditions: Mycolicibacterium smegmatis, 96 h, read-out: colony forming unit (CFU) reduction.

Values joined by “and” are separate entries in the source; they are usually repeats but may differ in a detail not shown here. Equal entries are not always repeated. Where two headings read alike, the source gives them in different places. Where only a bound is given, the exact number is not on record here.

The term MIC denotes the lowest concentration that inhibits growth of the organism.

For `CCn1cc(C(=O)NC(C)C)c(=O)c2cc(F)c(N3CCN(C(=O)c4ccco4)CC3)cc21` [N1–1], in assay [1], the “Enzyme inhibition (%) at 1 μM MtFBA” value is 54.81%. For the same molecule, in assay [2], the “Mycobacterium Growth inhibition MIC (μM) tuberculosis e” value was over 25 µM. Regarding `CCC(C)NC(=O)c1cn(CC)c2cc(N3CCN(C(=O)c4ccco4)CC3)c(F)cc2c1=O` (stereo not drawn) [N1–2], the “Enzyme inhibition (%) at 1 μM MtFBA” value in assay [1] was 54.28%. Besides, the “Mycobacterium Growth inhibition MIC (μM) tuberculosis e” value in assay [2] was 50 µM. With `CCCNC(=O)c1cn(CC)c2cc(N3CCN(C(=O)c4ccco4)CC3)c(F)cc2c1=O` [N1–3], the “Enzyme inhibition (%) at 1 μM MtFBA” value in assay [1] was 79.9%. In assay [2], the “Mycobacterium Growth inhibition MIC (μM) tuberculosis e” value was 25 µM. As to `C=CCNC(=O)c1cn(CC)c2cc(N3CCN(C(=O)c4ccco4)CC3)c(F)cc2c1=O` [N1–4], the “Enzyme inhibition (%) at 1 μM MtFBA” value in assay [1] is recorded as 97.0%. Also, in assay [2], the “Mycobacterium Growth inhibition MIC (μM) tuberculosis e” value was 25 µM.

On to `CCCCNC(=O)c1cn(CC)c2cc(N3CCN(C(=O)c4ccco4)CC3)c(F)cc2c1=O` [N1–5], for which the “Enzyme inhibition (%) at 1 μM MtFBA” value in assay [1] is 22.14%. Further, the “Mycobacterium Growth inhibition MIC (μM) tuberculosis e” value in assay [2] was over 25 µM. Regarding `CCn1cc(C(=O)NCC(C)C)c(=O)c2cc(F)c(N3CCN(C(=O)c4ccco4)CC3)cc21` [N1–6], the “Enzyme inhibition (%) at 1 μM MtFBA” value in assay [1] was 11.37%.

As for `CCn1cc(C(=O)NCCC(C)C)c(=O)c2cc(F)c(N3CCN(C(=O)c4ccco4)CC3)cc21` [N1–7], the “Enzyme inhibition (%) at 1 μM MtFBA” value in assay [1] was 14.68%. For the same molecule, the “Mycobacterium Growth inhibition MIC (μM) tuberculosis e” value in assay [2] was over 25 µM. For the molecule `CCn1cc(C(=O)NCc2ccccc2)c(=O)c2cc(F)c(N3CCN(C(=O)c4ccco4)CC3)cc21` [N1–10], the “Enzyme inhibition (%) at 1 μM MtFBA” value in assay [1] is 20% and 20.43%. Besides, the “Mycobacterium Growth inhibition MIC (μM) tuberculosis d” value in assay [3] is under 10 µM. In addition, in assay [2], the “Mycobacterium Growth inhibition MIC (μM) tuberculosis e” value was 25 µM. `CCn1cc(C(=O)NCc2cccc(F)c2)c(=O)c2cc(F)c(N3CCN(C(=O)c4ccco4)CC3)cc21` [N1–13]: in assay [1], the “Enzyme inhibition (%) at 1 μM MtFBA” value was 40% and 38.2%. Also, the “Mycobacterium Growth inhibition MIC (μM) tuberculosis d” value in assay [3] is 12.5 µM. In addition, the “Mycobacterium Growth inhibition MIC (μM) tuberculosis e” value in assay [2] is 25 µM. In the case of `CCn1cc(C(=O)NCc2ccncc2)c(=O)c2cc(F)c(N3CCN(C(=O)c4ccco4)CC3)cc21` [N1–16], in assay [1], the “Enzyme inhibition (%) at 1 μM MtFBA” value is on record as 41.76%. Besides, in assay [3], the “Mycobacterium Growth inhibition MIC (μM) tuberculosis d” value was over 100 µM.

As to `CCn1cc(C(=O)Nc2ncccc2O)c(=O)c2cc(F)c(N3CCN(C(=O)c4ccco4)CC3)cc21` [N1–20], the “Enzyme inhibition (%) at 1 μM MtFBA” value in assay [1] is recorded as 14.6%. `CCn1cc(C(=O)NCc2ccco2)c(=O)c2cc(F)c(N3CCN(C(=O)c4ccco4)CC3)cc21` [N1–29]: the “Enzyme inhibition (%) at 1 μM MtFBA” value in assay [1] is 19.8%. The “Mycobacterium Growth inhibition MIC (μM) tuberculosis d” value in assay [3] was over 10 µM. The “Mycobacterium Growth inhibition MIC (μM) tuberculosis e” value in assay [2] is under 25 µM. For the molecule `CCN(CC)CCNC(=O)c1cn(CC)c2cc(N3CCN(C(=O)c4ccco4)CC3)c(F)cc2c1=O` [N1–30], in assay [1], the “Enzyme inhibition (%) at 1 μM MtFBA” value was 22.17%. In addition, the “Mycobacterium Growth inhibition MIC (μM) tuberculosis d” value in assay [3] is over 100 µM.

With `CCN(CC)CCCNC(=O)c1cn(CC)c2cc(N3CCN(C(=O)c4ccco4)CC3)c(F)cc2c1=O` [N1–31], the “Enzyme inhibition (%) at 1 μM MtFBA” value in assay [1] is listed as 54.21%. In assay [2], the “Mycobacterium Growth inhibition MIC (μM) tuberculosis e” value was over 25 µM. Take `CC1CCC(C(C)C)C(OC(=O)Cn2c[n+](CC(=O)OC3CC(C)CCC3C(C)C)c3ccccc32)C1` (stereo not drawn) [N2–1]: the MIC in assay [4] worked out at 46.7 µM.

In the case of `COc1ccc(-c2n(CC(=O)OC3CC(C)CCC3C(C)C)c3ccccc3[n+]2C)cc1` (stereo not drawn) [N2–7], the NAD pool depletion result in assay [5] is “rapid depletion of the NAD pool”.

As to `CC1CCC(C(C)C)C(OC(=O)Cn2c(COc3ccccc3)[n+](C)c3ccccc32)C1` (stereo not drawn) [N2–8], the MIC in assay [4] stood at 21.2 µM. For the same molecule, the log reduction at 25 µM in assay [6] was over 2. With `Cc1ccccc1OCc1n(CC(=O)OC2CC(C)CCC2C(C)C)c2ccccc2[n+]1C` (stereo not drawn) [N2–9], in assay [4], the MIC worked out at 38.5 µM. The same measure, in the same setting: as for `Cc1ccc(OCc2n(CC(=O)OC3CC(C)CCC3C(C)C)c3ccccc3[n+]2C)cc1` (stereo not drawn) [N2–10], the figure is 19.7 µM. For `COc1ccc(OCc2n(CC(=O)OC3CC(C)CCC3C(C)C)c3ccccc3[n+]2C)cc1` (stereo not drawn) [N2–11], in assay [4], the MIC turned out to be 28 µM. Besides, the “Mycobacterium Growth inhibition, MIC (μM) tuberculosis” value in assay [4] (Table 2, this study) is 28.2 µM. The log reduction at 25 µM in assay [6] was at most 4. In addition, the NAD pool depletion result in assay [5] (inhibitor at ~5× MIC added at log-phase, samples over 6 hours) is “rapid depletion of the NAD pool”.

Values taken from article PMC8900257 (ACS chemical biology, 2019).
